Results published in patent US20200254065A1, “LONG-ACTING GLP-2 ANALOGS” (OPKO Biologics Ltd., priority 2019, published 2020).
Marks after values point to notes of the source that are not given here. Square brackets hold non-standard residues; d marks the D form. Peptide text beside a SMILES is read from it. Nle = CCCC[C@H](N)C(=O)O

Key:
[1] = tested on: small intestine; assay: Intestine weight model in rats; format: in vivo, SD rats; settings: for Small intestine weight increase over vehicle (%): MAL-FMS-V4 compared to Vehicle 2
Procedure, shortened: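 Rat intestinal growth model: conjugates given s.c. at 0.5–8.0 mg/kg peptide dose, as one injection, on days 1 and 3, or every 6 days; small intestine weighed on day 3, 6, 7, 10, 12 or 14. Histology (H&E, duodenum/jejunum/ileum) gave crypt+villus length. Both reported as % increase over vehicle.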

[2] = 2-compartmental pharmacokinetic modelling (MONOLIX 2018R2); format: in vivo, rat; settings: rat, in vivo
Protocol: An in-depth PK modeling was performed to address the unexpected differences in half life, distribution, and pharmacological effect between V4, Cys-FMS-V4, and Apraglutide in the rat model. The analysis was performed with MONOLIX 2018R2 suite using a 2-compartmental pharmacokinetic model. The data used in this analysis was comprised from 3 independent experiments (data is presented as their average). The concentration versus time data of V4 that was formed from the Cys-FMS-V4 conjugate (the hydrolyzed peptide) was described appropriately using the values of the pharmacokinetic parameters of V4 peptide. Thus, the disposition of the hydrolyzed V4 was identical to that of the V4 peptide following the IV and SC administration.
The pharmacokinetics of Apraglutide in our studies was determined after SC administration. […] Based on this assumption, the values of volumes of distribution and clearance (Vpept, Vss, Vbeta, and CL) were calculated for Apraglutide (Table 13). The values of the other parameters of Apraglutide in Table 14 (the rate constants and the half-lives) are not dependent on this assumption.

[3] = PK after single SC injection in rats (LC-MS/MS); settings: rat, in vivo, 2 mg/kg
Protocol: To support the pharmacodynamic effects of V4 and Cys-FMS-V4 as detailed in Example 9, a pharmacokinetic analysis was also conducted. In this study (Study reference 15204), all animals were injected SC on Day 1 with 2 mg/kg peptide content of V4, Cys-FMS-V4 and Apraglutide. Blood samples were collected at 2, 8, 12, 24, 36, 48, 72, 96, 120 hours, and Days 7, 8, 9, 10, 11, 12, 13 and 14 post-dose administration and subsequently taken to LC-MS/MS analysis to determine plasma levels of each compound. For Cys-FMS-V4, a 2-analyte method was applied to determine the plasma concentrations of both the full conjugate and the V4 that was hydrolyzed from it (V4 hydrolyzed). Plasma concentrations (μM), as measured by using the LC-MS/MS method, of V4 peptide, Cys-FMS-V4, hydrolyzed V4, and Apraglutide are presented in FIG. 17.

CCCC[C@H](NC(=O)[C@H](CCC(=O)O)NC(=O)[C@H](CC(=O)O)NC(=O)[C@H](CO)NC(=O)[C@H](Cc1ccccc1)NC(=O)[C@H](CO)NC(=O)CNC(=O)[C@H](CCC(=O)O)NC(=O)CNC(=O)[C@@H](N)Cc1c[nH]cn1)C(=O)N[C@@H](CC(N)=O)C(=O)N[C@H](C(=O)N[C@H](C(=O)N[C@@H](CC(C)C)C(=O)N[C@@H](CC(=O)O)C(=O)N[C@@H](CC(C)C)C(=O)N[C@@H](CC(C)C)C(=O)N[C@@H](C)C(=O)N[C@@H](C)C(=O)N[C@@H](CCCNC(=N)N)C(=O)N[C@@H](CC(=O)O)C(=O)N[C@@H](Cc1ccccc1)C(=O)N[C@H](C(=O)N[C@@H](CC(N)=O)C(=O)N[C@@H](Cc1c[nH]c2ccccc12)C(=O)N[C@@H](CC(C)C)C(=O)N[C@H](C(=O)N[C@@H](CCC(N)=O)C(=O)N[C@H](C(=O)N[C@@H](CCCCN)C(=O)N[C@H](C(=O)N[C@H](C(=O)N[C@@H](CC(=O)O)C(N)=O)[C@@H](C)O)[C@@H](C)CC)[C@@H](C)O)[C@@H](C)CC)[C@@H](C)CC)[C@@H](C)CC)[C@@H](C)O [Variant 4] (H-HGEGSFSDE[Nle]NTILDLLAARDFINWLIQTKITD-NH2)
Small intestine weight percent increase over vehicle (FIG. 12) ([1]; Study 15203, single SC 2 mg/kg peptide content on Day 1, Days 6 and 10): the most favorable results | Small intestine weight percent increase over vehicle (FIG. 15) ([1]; Study 15205, single SC 0.5, 2.0 or 8.0 mg/kg, Days 3, 7 and 14): reached maximal acute response at day 3 | Increase of intestine weight over vehicle (%) ([1]; modified peptides, two injections on days 1 & 3 at 1 mg/kg, intestine weight on day 6): 89% | Avg. small intestine weight (gr) ([1]; normal SD rats, injected once at 2 mg/kg peptide dose, 6th day): 7.0 gr | Small intestine weight increase over vehicle (%) ([1]; normal SD rats, injected once at 2 mg/kg peptide dose, 6th day, listed as V4, 2 mg/kg): 43.0** % | Small intestine weight increase over vehicle (%) ([1]; normal SD rats, injected once at 2 mg/kg peptide dose, 6th day, listed as V4 peptide, 2 mg/kg): the most pronounced effect on the small intestine weight | Fold increase of Vbeta as compared to the initial volume of distribution [2]: ~51 fold | Fold increase of Vss as compared to the initial volume of distribution [2]: ~8 fold | Ratio (V4/Apraglutide) of CL [2]: 0.96 | Ratio (V4/Apraglutide) of Fpept [2]: 0.54 | Ratio (V4/Apraglutide) of Vbeta [2]: 1.52 | Ratio (V4/Apraglutide) of Vpept [2]: 0.40 | Ratio (V4/Apraglutide) of Vss [2]: 1.68 | Ratio (V4/Apraglutide) of k12 [2]: 11.60 | Ratio (V4/Apraglutide) of k21 [2]: 1.54 | Ratio (V4/Apraglutide) of ka—pept [2]: 0.44 | Ratio (V4/Apraglutide) of kpepte [2]: 2.40 | Ratio (V4/Apraglutide) of t1/2 absorption [2]: 2.28 | Ratio (V4/Apraglutide) of t1/2 alpha [2]: 0.17 | Ratio (V4/Apraglutide) of t1/2 beta [2]: 1.57 | k12 [2]: 0.0749 h⁻¹ | k21 [2]: 0.0105 h⁻¹ | ka—pept [2]: 0.0729 h⁻¹ | kpepte [2]: 0.205 h⁻¹ | t1/2 beta [2]: 173.2 h | bioavailability ([2]; Bioavailability lower in comparison to Apraglutide): 46% | Bioavailability following SC injection (reaching the systemic circulation) ([2]; sc): 40.1% | CL ([2]; sc): 0.215 mL/min/kg | Fpept ([2]; sc): 0.401 | Local degradation of the dose at the injection site ([2]; sc): ~60% | Vd ([2]; sc): 3.21 L/kg | Vpept ([2]; sc): 0.0627 L/kg | Vss ([2]; sc): 0.51 L/kg | t1/2 absorption ([2]; sc): 9.51 h | bioavailability ([2]; sc, Bioavailability following SC injection (reaching the systemic circulation)): ~40% | half-life ([2]; sc, t1/2 absorption): 9.51 h | half-life ([2]; t1/2 alpha): 1.29 h | half-life ([2]; t1/2 beta): 173 h | AUC(0-inf) [3]: 14.6 µM·h | AUC(0-t) [3]: 13.7 µM·h | CL/F [3]: 0.617 mL/min/kg | Cmax [3]: 490 nM | Time post injection up to which detectable in blood [3]: ≤ 240 h | Tmax [3]: 12 h | Vd/F [3]: 4.07 L/kg | half-life [3]: 77 h
